# In US8101576B2, “Compounds and their effects on feeding behaviour” (priority 2006, dated 2012):
# Square brackets hold non-standard residues; d marks the D form. Ends that are not written are not given here. * marks the point of attachment. Palmitoyl = CCCCCCCCCCCCCCCC(=O)*; Myristoyl = CCCCCCCCCCCCCC(=O)*
# Assay: Inhibition of food intake, subcutaneous injection to fasted rats
# Format: in vivo, Wistar rats
# Method: Animals: All animal procedures were approved by the British Home Office Animals (Scientific Procedures) Act 1986 (Project License number 70/5516).
# Study protocol: C57BL/6 mice (20-35 g) were injected with the peptide under investigation following a 20-hour fast. Wistar rats were injected following a 24-hour fast. […] A pre-weighed quantity of chow was presented immediately after injection.
substance,measurement,setting,value
D-His Ser Gln Gly Thr Phe Thr Ser Asp Tyr Ser Lys Tyr Leu Glu Glu Glu Leu Val Lys Tyr Phe Ile Gln Trp Leu Met Asn Thr Lys Arg Asn Lys Asn Asn Ile Ala ([dH]SQGTFTSDYSKYLEEELVKYFIQWLMNTKRNKNNIA) [PEPTIDE NO: 60],Mean cumulative food intake in comparison to saline control,"100 nmoles/kg, over 24 hours",potent and long acting suppression of food intake
same,food intake in comparison to control group treated with native oxyntomodulin,"100 nmoles/kg, over 24 hours",lower than in the control group treated with native oxyntomodulin
D-His Ser Gln Gly Thr Phe Thr Ser Asp Tyr Ser Lys Tyr Leu Glu Gln Glu Ile Val Lys Tyr Phe Ile Gln Trp Leu Lys Asn Ala Gly Pro Ser Lys Asn Asn Ile Ala ([dH]SQGTFTSDYSKYLEQEIVKYFIQWLKNAGPSKNNIA) [PEPTIDE NO: 94],Mean cumulative food intake in comparison to saline control,"5 nmoles/kg, over 24 hours",potent and long acting suppression of food intake
same,food intake in comparison to control group treated with native oxyntomodulin,"5 nmoles/kg, over 24 hours",lower than in the control group treated with native oxyntomodulin
D-His Ala Asp Gly Thr Phe Thr Ser Asp Tyr Ser Lys Tyr Leu Glu Glu Glu Leu Val Lys Tyr Phe Ile Glu Trp Leu Met Asn Thr Lys Arg Asn Lys Asn Asn Ile Ala ([dH]ADGTFTSDYSKYLEEELVKYFIEWLMNTKRNKNNIA) [PEPTIDE NO: 153],Mean cumulative food intake in comparison to saline control,"200 mmoles/kg, over 24 hours",potent and long acting suppression of food intake
same,food intake in comparison to control group treated with native oxyntomodulin,"200 mmoles/kg, over 24 hours",lower than in the control group treated with native oxyntomodulin
D-His Ser Gln Gly Thr Phe Thr Ser Asp Tyr Ser Lys Tyr Leu Glu Glu Glu Leu Val Lys Tyr Phe Ile Gln Trp Leu Lys Asn Ala Gly Pro Ser Lys Asn Asn Ile Ala ([dH]SQGTFTSDYSKYLEEELVKYFIQWLKNAGPSKNNIA) [PEPTIDE NO: 58],Mean cumulative food intake in comparison to saline control,"10 nmoles/kg, over 24 hours",potent and long acting suppression of food intake
same,food intake in comparison to control group treated with native oxyntomodulin,"10 nmoles/kg, over 24 hours",lower than in the control group treated with native oxyntomodulin
[dH]ADGWFWSDYSKYLDSRRAQDFVQWLKNAGPSKNNIA [PEPTIDE NO: 199],Mean cumulative food intake in comparison to saline control,"500 nmoles/kg, over 24 hours",potent and long acting suppression of food intake
same,food intake in comparison to control group treated with native oxyntomodulin,"500 nmoles/kg, over 24 hours",lower than in the control group treated with native oxyntomodulin
D-His Ala Asp Gly Thr Phe Thr Ser Asp Tyr Ser Lys Tyr Leu Glu Glu Glu Ile Val Lys Tyr Phe Ile Gln Trp Leu Met Asn Thr Lys Arg Asn Lys Asn Asn Ile Ala Lys ([dH]ADGTFTSDYSKYLEEEIVKYFIQWLMNTKRNKNNIAK) [PEPTIDE NO: 203],food intake suppression continues for,"100 nmoles/kg, 24 hours observed",≥ 24 h
same,Mean cumulative food intake in comparison to saline control,"100 nmoles/kg, over 24 hours",potent and long acting suppression of food intake
same,food intake in comparison to control group treated with native oxyntomodulin,"100 nmoles/kg, over 24 hours",lower than in the control group treated with native oxyntomodulin
His Ser Gln Gly Thr Phe Thr Ser Asp Tyr Ser Lys Tyr Leu Glu Glu Glu Ile Val Lys Tyr Phe ILe Gln Trp Leu Lys Asn Ala Gly Pro Ser Lys Asn Asn Ile Ala (HSQGTFTSDYSKYLEEEIVKYFIQWLKNAGPSKNNIA) [PEPTIDE NO: 22],Mean cumulative food intake in comparison to saline control,"3 nmoles/kg, over 24 hours",potent and long acting suppression of food intake
same,food intake in comparison to control group treated with native oxyntomodulin,"3 nmoles/kg, over 24 hours",lower than in the control group treated with native oxyntomodulin
D-His Ala Asp Gly Thr Phe Thr Ser Asp Tyr Ser Lys Tyr Leu Glu Gln Glu Leu Val Lys Tyr Phe Leu Gln Trp Leu Lys Asn Ala Gly Pro Ser Lys Asn Asn Ile Ala ([dH]ADGTFTSDYSKYLEQELVKYFLQWLKNAGPSKNNIA) [PEPTIDE NO: 172],Mean cumulative food intake in comparison to saline control,"3 nmoles/kg, over 24 hours",potent and long acting suppression of food intake
same,food intake in comparison to control group treated with native oxyntomodulin,"3 nmoles/kg, over 24 hours",lower than in the control group treated with native oxyntomodulin
D-His Ala Asp Gly Thr Phe Thr Ser Asp Tyr Ser Lys Tyr Leu Glu Glu Glu Leu Val Lys Tyr Phe Ile Gln Trp Leu Lys Asn Gly Gly Pro Ser Lys Asn Asn Ile Ala Ala Ala Lys-palmitoyl ([dH]ADGTFTSDYSKYLEEELVKYFIQWLKNGGPSKNNIAAAK(Palmitoyl)) [PEPTIDE NO: 207],food intake in comparison to control group treated with native oxyntomodulin,"80 mmoles/kg, over 48 hours",lower than in the control group treated with native oxyntomodulin
same,Mean cumulative food intake in comparison to saline control,over 48 hours,potent and long acting suppression of food intake
D-His Ala Asp Gly Thr Phe Thr Ser Asp Tyr Ser Lys Tyr Leu Glu Glu Glu Ile Val Lys Tyr Phe Ile Gln Trp Leu Lys Asn Gly Gly Pro Ser Lys Asn Asn Ile Ala Lys ([dH]ADGTFTSDYSKYLEEEIVKYFIQWLKNGGPSKNNIAK) [PEPTIDE NO: 201],Mean cumulative food intake in comparison to saline control,"5 nmoles/kg, over 48 hours",potent and long acting suppression of food intake
same,food intake in comparison to control group treated with native oxyntomodulin,"5 nmoles/kg, over 48 hours",lower than in the control group treated with native oxyntomodulin
D-His Ala Asp Gly Thr Phe Thr Ser Asp Tyr Ser Lys Tyr Leu Glu Glu Glu Ile Val Lys Tyr Phe Ile Gln Trp Leu Lys Asn Gly Gly Pro Ser Lys Asn Asn Ile Ala ([dH]ADGTFTSDYSKYLEEEIVKYFIQWLKNGGPSKNNIA) [PEPTIDE NO: 167],food intake suppression continues for,"5 nmoles/kg, 32 hours observed",≥ 32 h
same,Mean cumulative food intake in comparison to saline control,"5 nmoles/kg, over 32 hours",potent and long acting suppression of food intake
same,food intake in comparison to control group treated with native oxyntomodulin,"5 nmoles/kg, over 32 hours",lower than in the control group treated with native oxyntomodulin
D-His Ser Gln Gly Thr Phe Thr Ser Asp Tyr Ser Lys Tyr Leu Glu Glu Glu Leu Val Lys Tyr Phe Leu Gln Trp Leu Lys Asn Ala Gly Pro Ser Lys Asn Asn Ile Ala ([dH]SQGTFTSDYSKYLEEELVKYFLQWLKNAGPSKNNIA) [PEPTIDE NO: 52],Mean cumulative food intake in comparison to saline control,"10 nmoles/kg, over 24 hours",potent and long acting suppression of food intake
same,food intake in comparison to control group treated with native oxyntomodulin,"10 nmoles/kg, over 24 hours",lower than in the control group treated with native oxyntomodulin
D-His Ala Gln Gly Thr Phe Thr Ser Asp Tyr Ser Lys Tyr Leu Glu Gln Glu Ile Val Lys Tyr Phe Ile Gln Trp Leu Lys Asn Ala Gly Pro Ser Lys Asn Asn Ile Ala ([dH]AQGTFTSDYSKYLEQEIVKYFIQWLKNAGPSKNNIA) [PEPTIDE NO: 142],Mean cumulative food intake in comparison to saline control,"3 nmoles/kg, over 24 hours",potent and long acting suppression of food intake
same,food intake in comparison to control group treated with native oxyntomodulin,"3 nmoles/kg, over 24 hours",lower than in the control group treated with native oxyntomodulin
D-His Ala Asp Gly Thr Phe Thr Ser Asp Tyr Ser Lys Tyr Leu Glu Gln Glu Ile Val Lys Tyr Phe Ile Gln Trp Leu Lys Asn Gly Gly Pro Ser Lys Asn Asn Ile Ala Lys ([dH]ADGTFTSDYSKYLEQEIVKYFIQWLKNGGPSKNNIAK) [PEPTIDE NO: 202],Mean cumulative food intake in comparison to saline control,"5 nmoles/kg, over 48 hours",potent and long acting suppression of food intake
same,food intake in comparison to control group treated with native oxyntomodulin,"5 nmoles/kg, over 48 hours",lower than in the control group treated with native oxyntomodulin
D-His Ala Asp Gly Thr Phe Thr Ser Asp Tyr Ser Lys Tyr Leu Glu Glu Glu Leu Val Lys Tyr Phe Ile Gln Trp Leu Lys Asn Gly Gly Pro Ser Lys Asn Asn Ile Ala Lys ([dH]ADGTFTSDYSKYLEEELVKYFIQWLKNGGPSKNNIAK) [PEPTIDE NO: 204],Mean cumulative food intake in comparison to saline control,"5 nmoles/kg, over 32 hours",potent and long acting suppression of food intake
same,food intake in comparison to control group treated with native oxyntomodulin,"5 nmoles/kg, over 32 hours",lower than in the control group treated with native oxyntomodulin
PEPTIDE NO: 216: analogue of oxyntomodulin with Asn34 replaced by Asp34; sequence shown only in FIG. 1 (HSQGTFTSDYSKYLEEELVKYFLEWLKNAGPSKDNIA),food intake suppression continues for,"10 nmoles/kg, 24 hours observed",≥ 24 h
same,Mean cumulative food intake in comparison to saline control,"10 nmoles/kg, over 24 hours",potent and long acting suppression of food intake
same,food intake in comparison to control group treated with native oxyntomodulin,"10 nmoles/kg, over 24 hours",lower than in the control group treated with native oxyntomodulin
D-His Ala Asp Gly Thr Phe Thr Ser Asp Tyr Ser Lys Tyr Leu Glu Glu Glu Leu Val Lys Tyr Phe Ile Gln Trp Leu Lys Asn Gly Gly Pro Ser Lys Asn Asn Ile Ala ([dH]ADGTFTSDYSKYLEEELVKYFIQWLKNGGPSKNNIA) [PEPTIDE NO: 155],food intake suppression continues for,"4 nmoles/kg, 32 hours observed",≥ 32 h
same,Mean cumulative food intake in comparison to saline control,"4 nmoles/kg, over 32 hours",potent and long acting suppression of food intake
same,food intake in comparison to control group treated with native oxyntomodulin,"4 nmoles/kg, over 32 hours",lower than in the control group treated with native oxyntomodulin
D-His Ala Asp Gly Thr Phe Thr Ser Asp Tyr Ser Lys Tyr Leu Glu Glu Glu Leu Val Lys Tyr Phe Ile Gln Trp Leu Lys Asn Gly Gly Pro Ser Lys Asn Asn Ile Ala Ala Ala Lys-myristoyl ([dH]ADGTFTSDYSKYLEEELVKYFIQWLKNGGPSKNNIAAAK(Myristoyl)) [PEPTIDE NO: 206],food intake in comparison to control group treated with native oxyntomodulin,"80 mmoles/kg, over 48 hours",lower than in the control group treated with native oxyntomodulin
same,Mean cumulative food intake in comparison to saline control,over 48 hours,potent and long acting suppression of food intake
